Measurements as given in ChEMBL document CHEMBL1201862, “PubChem BioAssay data set” (2004).
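A five-concentration, 48-hour dose response in 96-well plates underlies each endpoint, interpolated linearly between surrounding concentrations. GI50 = concentration required for 50% inhibition of growth.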 Activity calls are given as the source filed them. Cut-off read from the data, not from the text of the source: active = GI50 up to about 1.1 µM and inactive = higher.

Columns and labels:
Test in all cases: DTP human tumour cell line panel, 48 h
[1] = tested on: UO-31
[2] = tested on: NCI-H460
[3] = tested on: OVCAR-5
[4] = tested on: LOX IMVI
[5] = tested on: OVCAR-3
[6] = tested on: SNB-19
[7] = tested on: UACC-62
[8] = tested on: TK-10
[9] = tested on: EKVX
[10] = tested on: SR
[11] = tested on: NCI-H23
[12] = tested on: CAKI-1
[13] = tested on: HCC 2998
[14] = tested on: HCT-15
[15] = tested on: UACC-257
[16] = tested on: M14
[17] = tested on: HL-60
[18] = tested on: SK-OV-3
[19] = tested on: RPMI-8226

Row | Structure (SMILES) | GI50 [1] | GI50 [2] | GI50 [3] | GI50 [4] | GI50 [5] | GI50 [6] | GI50 [7] | GI50 [8] | GI50 [9] | GI50 [10] | GI50 [11] | GI50 [12] | GI50 [13] | GI50 [14] [µM] | GI50 [15] | GI50 [16] | GI50 [17] | GI50 [18] | GI50 [19]
1 | Cn1c(=O)c2nc(CCNC(=O)c3ccccc3)[nH]c2n(C)c1=O | > 100 µM (inactive) | > 100 µM (inactive) | > 100 µM (inactive) | > 100 µM (inactive) | > 100 µM (inactive) | > 100 µM (inactive) | > 100 µM (inactive) | > 100 µM (inactive) | > 100 µM (inactive) | > 100 µM (inactive) | > 100 µM (inactive) | > 100 µM (inactive) | > 100 µM (inactive) | > 100 | > 100 µM (inactive) | > 100 µM (inactive) |  |  | 
2 | COC(=O)c1c(-c2cc(OC)c(OC)c(OC)c2)oc2ccccc2c1=O | 66.4 µM (inactive) | 76.7 µM (inactive) | > 100 µM (inactive) | 37.4 µM (inactive) | 75.9 µM (inactive) | > 100 µM (inactive) | 68.4 µM (inactive) | 42.6 µM (inactive) | > 100 µM (inactive) |  | > 100 µM (inactive) | 75.3 µM (inactive) | > 100 µM (inactive) | 15.4 | > 100 µM (inactive) | > 100 µM (inactive) | 36.7 µM (inactive) | > 100 µM (inactive) | 36.2 µM (inactive)
3 | CN1C(=O)C(=O)N2c3ccc(Cl)cc3C3(c4ccccc4)N=CC12O3 (centres undefined) | 4.1 µM (inactive) | 6.03 µM (inactive) | 6.93 µM (inactive) | 1.53 µM (inactive) | 4.38 µM (inactive) | 12.9 µM (inactive) | 3.94 µM (inactive) | 5.45 µM (inactive) | 8.87 µM (inactive) |  | 4.13 µM (inactive) | 5.13 µM (inactive) | 14.7 µM (inactive) | 3.24 | 5.79 µM (inactive) | 3.21 µM (inactive) | 2.25 µM (inactive) | 10.1 µM (inactive) | 2.19 µM (inactive)
4 | Cc1ccc(NC(=O)CCC(=O)C(C#N)c2ccc(Cl)cc2)cc1C (centres undefined) | > 100 µM (inactive) | > 100 µM (inactive) | > 100 µM (inactive) | > 100 µM (inactive) | > 100 µM (inactive) | > 100 µM (inactive) | > 100 µM (inactive) | > 100 µM (inactive) | > 100 µM (inactive) |  | > 100 µM (inactive) | > 100 µM (inactive) | > 100 µM (inactive) | > 100 | > 100 µM (inactive) | > 100 µM (inactive) | > 100 µM (inactive) |  | > 100 µM (inactive)
5 | O=c1[nH]cc(C(F)(C(F)(F)F)C(F)(F)F)c(=O)[nH]1 | > 100 µM (inactive) | > 100 µM (inactive) | > 100 µM (inactive) | > 100 µM (inactive) | > 100 µM (inactive) | > 100 µM (inactive) | > 100 µM (inactive) | > 100 µM (inactive) | > 100 µM (inactive) |  | > 100 µM (inactive) | > 100 µM (inactive) |  | > 100 | > 100 µM (inactive) | > 100 µM (inactive) | > 100 µM (inactive) | > 100 µM (inactive) | > 100 µM (inactive)
6 | COc1ccc(Cc2nc3ccccc3s2)cc1OC | 16.4 µM (inactive) | 19.7 µM (inactive) | 22.3 µM (inactive) |  | 17.3 µM (inactive) | 32.5 µM (inactive) | 17.3 µM (inactive) | 36.2 µM (inactive) | 20.8 µM (inactive) | 18.9 µM (inactive) | 18.1 µM (inactive) | 15.5 µM (inactive) | 21.1 µM (inactive) | 24.2 | 18.1 µM (inactive) | 17.5 µM (inactive) | 18.4 µM (inactive) | 28.2 µM (inactive) | 23.7 µM (inactive)
7 | CC(Oc1ccc2cc(C(=O)c3ccccc3)c(=O)oc2c1)C(=O)O (centres undefined) | > 100 µM (inactive) | > 100 µM (inactive) |  | > 100 µM (inactive) | > 100 µM (inactive) | > 100 µM (inactive) | > 100 µM (inactive) | > 100 µM (inactive) | > 100 µM (inactive) | > 100 µM (inactive) | > 100 µM (inactive) | > 100 µM (inactive) | > 100 µM (inactive) |  | > 100 µM (inactive) | > 100 µM (inactive) | > 100 µM (inactive) | > 100 µM (inactive) | 
8 | c1ccc(Nc2nnc(CSc3nc(-c4ccccc4)c(-c4ccccc4)[nH]3)s2)cc1 | 13.3 µM (inactive) | 12.4 µM (inactive) | 21.3 µM (inactive) | 17 µM (inactive) | 10.5 µM (inactive) |  |  | 26.1 µM (inactive) | 19.4 µM (inactive) | 20.6 µM (inactive) | 21.3 µM (inactive) |  |  | 18.1 | 20.5 µM (inactive) | 14.7 µM (inactive) | 13.2 µM (inactive) | 22.8 µM (inactive) | 11.5 µM (inactive)
9 | C[C@@H]1C(=O)CC2C(C)(C)CCC[C@]2(C)[C@@]12CC[C@]1(C=COC1)O2 (some centres undefined) | 29.9 µM (inactive) | 32.8 µM (inactive) | > 100 µM (inactive) | 33.4 µM (inactive) | 36.4 µM (inactive) | 61 µM (inactive) | 35.4 µM (inactive) |  | 42.9 µM (inactive) | 22 µM (inactive) |  | 64.3 µM (inactive) | 38.1 µM (inactive) | 30.5 |  | 29.4 µM (inactive) | 18.7 µM (inactive) | 27.5 µM (inactive) | 
10 | NC(=O)C[S+]([O-])CC(N)C(=O)O (centres undefined) | > 100 µM (inactive) | > 100 µM (inactive) | > 100 µM (inactive) | > 100 µM (inactive) | > 100 µM (inactive) | > 100 µM (inactive) | > 100 µM (inactive) | > 100 µM (inactive) | > 100 µM (inactive) | > 100 µM (inactive) | > 100 µM (inactive) | > 100 µM (inactive) | > 100 µM (inactive) | > 100 | > 100 µM (inactive) | > 100 µM (inactive) |  |  | 
11 | c1ccc(C2CC(N3CCOCC3)=Nc3ccccc3N2)cc1 (centres undefined) | > 100 µM (inactive) | > 100 µM (inactive) | > 100 µM (inactive) |  | > 100 µM (inactive) | > 100 µM (inactive) | > 100 µM (inactive) | > 100 µM (inactive) | > 100 µM (inactive) |  | > 100 µM (inactive) | > 100 µM (inactive) |  | > 100 | > 100 µM (inactive) | > 100 µM (inactive) | > 100 µM (inactive) | > 100 µM (inactive) | 43.9 µM (inactive)
12 | CC1=C(C(=O)Nc2ccc([N+](=O)[O-])cc2)C(c2ccc3c(c2)OCO3)C(C(=O)Nc2ccc([N+](=O)[O-])cc2)=C(C)N1 | 6.4 µM (inactive) | 10 µM (inactive) | 59.7 µM (inactive) |  | 6.43 µM (inactive) | > 100 µM (inactive) | 5.21 µM (inactive) |  | 8.2 µM (inactive) | 1.98 µM (inactive) | 5.78 µM (inactive) | 23.7 µM (inactive) | 7.05 µM (inactive) | 8.09 | 5.6 µM (inactive) | 6.78 µM (inactive) |  | > 100 µM (inactive) | 5.04 µM (inactive)
13 | O=c1[nH]c(-c2ccccc2)nc2cc(Cl)ccc12 | > 100 µM (inactive) | > 100 µM (inactive) | > 100 µM (inactive) |  | > 100 µM (inactive) |  | > 100 µM (inactive) | > 100 µM (inactive) | > 100 µM (inactive) |  | > 100 µM (inactive) | > 100 µM (inactive) | > 100 µM (inactive) | > 100 | > 100 µM (inactive) | > 100 µM (inactive) | > 100 µM (inactive) | > 100 µM (inactive) | > 100 µM (inactive)
14 | CC(C)NCC(O)COC(=O)c1cccs1 (centres undefined) | > 100 µM (inactive) | > 100 µM (inactive) | > 100 µM (inactive) | > 100 µM (inactive) | > 100 µM (inactive) | > 100 µM (inactive) | > 100 µM (inactive) | > 100 µM (inactive) | > 100 µM (inactive) |  | > 100 µM (inactive) | > 100 µM (inactive) | > 100 µM (inactive) | > 100 | > 100 µM (inactive) | > 100 µM (inactive) | > 100 µM (inactive) | > 100 µM (inactive) | > 100 µM (inactive)
15 | COc1ccc(O)c(C#N)c1C#N | > 100 µM (inactive) | > 100 µM (inactive) | > 100 µM (inactive) | < 0.01 µM (active) | > 100 µM (inactive) | > 100 µM (inactive) | > 100 µM (inactive) | > 100 µM (inactive) | > 100 µM (inactive) |  | > 100 µM (inactive) | > 100 µM (inactive) | > 100 µM (inactive) | > 100 | > 100 µM (inactive) | > 100 µM (inactive) | > 100 µM (inactive) | > 100 µM (inactive) | > 100 µM (inactive)
16 | O=C(CCn1[nH]c(=O)c(Cl)c(Cl)c1=O)NNC(=O)C[n+]1ccccc1 | > 100 µM (inactive) | > 100 µM (inactive) | > 100 µM (inactive) | > 100 µM (inactive) | > 100 µM (inactive) | > 100 µM (inactive) | > 100 µM (inactive) | > 100 µM (inactive) | > 100 µM (inactive) |  | > 100 µM (inactive) | > 100 µM (inactive) | > 100 µM (inactive) | > 100 | > 10 µM (inactive) | > 100 µM (inactive) | > 100 µM (inactive) | > 100 µM (inactive) | > 100 µM (inactive)
17 | O=C(O)CN(c1ccccc1)S(=O)(=O)c1ccc(NC(=O)c2ccccc2)cc1 | > 100 µM (inactive) | > 100 µM (inactive) | > 100 µM (inactive) | > 100 µM (inactive) |  | > 100 µM (inactive) | > 100 µM (inactive) | > 100 µM (inactive) | > 100 µM (inactive) |  | > 100 µM (inactive) | > 100 µM (inactive) |  | > 100 | > 100 µM (inactive) | > 100 µM (inactive) | > 100 µM (inactive) | > 100 µM (inactive) | > 100 µM (inactive)
